# From US20120315658A1, “AMELIORATION OF METABOLIC SYNDROME USING PHYSIOLOGICAL FUNCTIONS OF SPHINGOMYELIN SYNTHASE SMS2, OR SCREENING METHODS FOR AMELIORATING AGENTS” (Shionogi & Co., Ltd., priority 2009, published 2012)
# Test system: ZS2/SMS2 cells
# Assay: Me beta CD sensitivity test with Myriocin, viable cell number by WST-8
# Format: cell-based, mouse
# Settings: for effect of added lipid on cell growth inhibitory effects caused by Myriocin: Myriocin + ceramide (10 microM) or sphingomyelin (15 microM)
# Procedure: 1×10^6 MEF cells are washed, and resuspended in 1 ml of serum-free RPMI 1640 medium, and treated with an appropriate concentration of Me beta CD, and cultured in 5% CO2, 37 degrees Celsius for five minutes. After 2 ml of normal medium containing myriocin are added thereto, and the cells are cultured for additional 12 hours. A reagent for measuring viable cell number containing WST-8 (Nakalai Tesque) may be used to measure survival rate of the cells.
# More specifically, ZS2/SMS2 cells prepared in Example 2 are placed in 48-well plate dish at 5000 cells/0.2 ml/well (N=3). For cell culture, 0.3% FCS/OPTIPRO SFM (GIBCO) was used. In this case, Myriocin (Final concentration 5 microM) is added, or alternatively, Myriocin+ceramide (10 microM) or Myriocin+sphingomyelin (15 microM) were added thereto. Me beta CD was added at the final concentration of 2 mM, and further cultured in 5% CO2, 37 degrees Celsius for sixteen hours. A reagent for measuring viable cell number containing WST-8 (DOJINDO) was added at 10 microliter/well and further cultured in 5% CO2, 37 degrees Celsius for one hour (WST assay). The viable cell numbers were counted according to the protocol. Y axis represents a numerical value when the average value is deemed to be 100% amongst the cases in the presence and absence of Myriocin, when Me beta CD is not placed therein.
compound,measurement,setting,value
sphingomyelin [SM],effect of added lipid on cell growth inhibitory effects caused by Myriocin,2 mM Me beta CD,almost completely inhibited the cell growth inhibitory effects caused by Myriocin
ceramide,effect of added lipid on cell growth inhibitory effects caused by Myriocin,2 mM Me beta CD,almost completely inhibited the cell growth inhibitory effects caused by Myriocin
CCCCCCC(=O)CCCCCC/C=C/C[C@@H](O)[C@H](O)[C@@](N)(CO)C(=O)O [Myriocin],further reduction of cell growth by addition of Myriocin,"2 mM Me beta CD, sixteen hours, Myriocin printed as 2 mM",about 20%
same,"viable cell number, presence versus absence of Myriocin","Me beta CD not placed therein, Myriocin 5 microM",not significant difference
methyl-beta-cyclodextrin [Me beta CD],reduction of cell growth by Me beta CD,"2 mM Me beta CD, sixteen hours, no Myriocin",about 50%
